Series [1] addresses mannose receptor protein CD206 (Homo sapiens, UniProt P22897).
Series [2] relates to Kaposi's sarcoma lesion(s). The experiment in a line: SPECT and SPECT/CT imaging of primary cutaneous Kaposi's sarcoma. The series is classed as in vivo, human. As to conditions: 50 μg tilmanocept, 2.0 mCi 99mTc, subcutaneous; example in present tense. The procedure: The following illustrates yet another example of the evaluation of Primary Cutaneous Kaposi's Sarcoma (KS) by SPECT and SPECT/CT Imaging using Lymphoseek® (also known as technetium 99mTc-tilmanocept injection) a radiopharmaceutical that binds to mannose binding receptors (CD206) that reside on the surfaces of dendritic cells and macrophages.
The total volume of 99mTc-tilmanocept injection is 0.3 to 0.5 mL.
The patient has a marker lesion (>1 cm in diameter) with a confirmed diagnosis of KS (CD206-expressing cutaneous KS) via punch biopsy. The location of the marker KS lesion is on the extremities: from the shoulder to the metacarpal region or from the groin to the metatarsal region.
The dose is administered by a syringe with a ⅝ inch, 25- or 27-gauge, fixed needle, or other syringe/needle combinations that are acceptable for subcutaneous injections. The injection is made 1.5±0.25 cm distal from the marker lesion, 4-8 cm distal to the marker lesion, or 4-8 cm proximal to the marker lesion.
The patient undergoes a regional dynamic SPECT scan immediately post-injection for a duration of 30 minutes. After the initial scan, the patient undergoes whole body SPECT/CT imaging at 1 hour and whole body SPECT imaging at 4-6 hours post injection. The patient is permitted to leave the imaging center after the 4-6 hour SPECT scan. […]

For series [3] the following is noted: staging breast cancer, melanoma or SCC; cited from earlier work.

Here are results for two substances from US20220016272A1, “COMPOSITIONS, METHODS AND KITS FOR DIAGNOSING AND TREATING CD206 EXPRESSING CELL-RELATED DISORDERS” (Cardinal Health 414, LLC, priority 2013, published 2022).

Sequence of mannose receptor protein CD206 (P22897 19-1456): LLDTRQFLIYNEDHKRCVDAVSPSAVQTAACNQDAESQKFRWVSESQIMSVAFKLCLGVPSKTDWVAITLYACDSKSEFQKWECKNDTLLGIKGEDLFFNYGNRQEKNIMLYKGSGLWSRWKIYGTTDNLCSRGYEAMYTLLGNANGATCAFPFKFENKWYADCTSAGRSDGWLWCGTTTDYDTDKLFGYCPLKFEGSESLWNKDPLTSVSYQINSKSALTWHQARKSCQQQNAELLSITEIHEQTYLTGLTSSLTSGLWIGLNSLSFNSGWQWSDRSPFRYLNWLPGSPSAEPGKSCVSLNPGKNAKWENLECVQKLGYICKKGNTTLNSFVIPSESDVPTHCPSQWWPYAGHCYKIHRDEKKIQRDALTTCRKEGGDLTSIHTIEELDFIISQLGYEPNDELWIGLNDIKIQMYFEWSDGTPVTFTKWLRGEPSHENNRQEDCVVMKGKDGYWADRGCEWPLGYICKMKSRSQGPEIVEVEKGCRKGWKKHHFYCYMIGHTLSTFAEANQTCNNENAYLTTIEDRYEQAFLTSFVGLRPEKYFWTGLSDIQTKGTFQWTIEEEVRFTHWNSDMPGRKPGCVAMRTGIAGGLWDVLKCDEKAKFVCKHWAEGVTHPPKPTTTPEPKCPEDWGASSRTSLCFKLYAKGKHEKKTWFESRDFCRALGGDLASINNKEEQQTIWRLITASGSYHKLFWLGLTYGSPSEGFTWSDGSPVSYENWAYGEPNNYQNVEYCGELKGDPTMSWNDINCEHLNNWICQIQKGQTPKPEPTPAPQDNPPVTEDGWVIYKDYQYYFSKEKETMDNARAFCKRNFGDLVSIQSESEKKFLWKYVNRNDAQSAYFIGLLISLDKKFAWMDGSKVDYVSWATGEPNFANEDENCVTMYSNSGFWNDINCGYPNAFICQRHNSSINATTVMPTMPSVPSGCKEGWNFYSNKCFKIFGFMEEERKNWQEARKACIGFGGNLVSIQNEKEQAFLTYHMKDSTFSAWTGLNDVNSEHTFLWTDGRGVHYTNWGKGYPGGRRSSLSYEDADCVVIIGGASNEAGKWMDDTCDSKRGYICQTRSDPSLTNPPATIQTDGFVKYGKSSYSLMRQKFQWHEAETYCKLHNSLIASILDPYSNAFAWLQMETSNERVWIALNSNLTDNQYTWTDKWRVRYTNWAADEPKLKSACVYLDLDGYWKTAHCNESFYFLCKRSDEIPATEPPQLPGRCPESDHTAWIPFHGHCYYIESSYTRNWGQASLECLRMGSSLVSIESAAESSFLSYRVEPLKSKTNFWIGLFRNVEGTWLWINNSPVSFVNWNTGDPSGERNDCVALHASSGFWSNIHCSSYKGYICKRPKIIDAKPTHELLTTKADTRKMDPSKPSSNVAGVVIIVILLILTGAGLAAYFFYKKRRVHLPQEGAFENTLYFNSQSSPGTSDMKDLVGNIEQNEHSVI

As to “dextran 3-[(2-aminoethyl)thio]propyl 17-carboxy-10,13,16-tris (carboxymethyl)-8-oxo-4-thia-7,10,13,16-tetraazaheptadec-1-yl 3-[[2-[[1-imino-2-(D-mannopyranosylthio) ethyl]aminolethyllthiolpropyl ether complexes [tilmanocept]”, the “intracellular fate after uptake into macrophage” value in series [1] was “persists in stable non-digesting vesicles”. In series [1] (administered to mammals or contacted with CD206 expressing cells ex vivo), the receptor specificity entry is “bind exclusively to the mannose receptor protein CD206”.

Consider “technetium Tc 99m, dextran 3-[(2-aminoethyl)thio]propyl 17-carboxy-10,13,16-tris(carboxymethyl)-8-oxo-4-thia-7,10,13,16-tetraaz aheptadec-1-yl 3-[[2-[[1-imino-2-(D-mannopyranosylthio) ethyl]amino]ethyl]thio]propyl ether complexes [Lymphoseek]”, for which the “detection of KS lesions by SPECT and SPECT/CT” value in series [2] is “aids in the detection of Kaposi's sarcoma lesion(s)”. In series [3], the injection site clearance entry is recorded as “rapid clearance from an injection site”; the “uptake by distal or second-echelon lymph nodes” value was “low uptake by distal or second-echelon lymph nodes”; the “uptake by the sentinel lymph node(s)” value is “rapid and sustained uptake by the sentinel lymph node(s)”.
